Tested on: amnesia induced by scopolamine in rats
Experiment: passive avoidance test, amnesia induced by scopolamine in rats
Type: in vivo
Experimental: The purpose of the study is to examine the effects of etifoxine on amnesia, induced by a substance which is an antagonist of the cholinergic receptors in rats, scopolamine (see in particular Rush (1988) Behav. Neural. Biol. 1988 50:255-274).
Memory capacities are evaluated over the course of the passive avoidance test in a box with two compartments, dark and light. In a first step, the acquisition step, entering the dark compartment is associated with an unpleasant electric shock. In a second step, the retention step, the latency to enter the dark compartment is measured. The lower this latency, the more strongly the animal is suffering from amnesia.
Amnesia is induced by administering scopolamine 30 minutes before the information acquisition step.
Two series of tests were performed: • 1) Etifoxine was administered intraperitoneally 35 minutes before acquisition of the event. • 7 groups of 10 to 20 rats were formed, each group receiving the following respective treatments: • Group 1 (reference): scopolamine 0 mg/kg, etifoxine 0 mg/kg • Group 2 (control): scopolamine 0 mg/kg, etifoxine 50 mg/kg • Group 3: scopolamine 1.4 mg/kg, etifoxine 0 mg/kg • Group 4: scopolamine 1.4 mg/kg, etifoxine 6.2 mg/kg • Group 5: scopolamine 1.4 mg/kg, etifoxine 12.5 mg/kg • Group 6: scopolamine 1.4 mg/kg, etifoxine 25 mg/kg • Group 7: scopolamine 1.4 mg/kg, etifoxine 50 mg/kg • 2) Etifoxine was administered intraperitoneally immediately after acquisition of the event. • 7 groups of 10 rats were formed, each group receiving the following respective treatments: • Group 1 (reference): scopolamine 0 mg/kg, etifoxine 0 mg/kg • Group 2 (control): scopolamine 0 mg/kg, etifoxine 50 mg/kg • Group 3: scopolamine 1.4 mg/kg, etifoxine 0 mg/kg • Group 4: scopolamine 1.4 mg/kg, etifoxine 6.2 mg/kg • Group 5: scopolamine 1.4 mg/kg, etifoxine 12.5 mg/kg • Group 6: scopolamine 1.4 mg/kg, etifoxine 25 mg/kg • Group 7: scopolamine 1.4 mg/kg, etifoxine 50 mg/kg
For each test series and for each group the latency to enter the dark compartment was measured in the case of acquisition and in the case of retention.
For the first series of tests, a one-way ANOVA analysis was performed followed by the Student-Newman-Keuls test in order to find the differences between the groups. The difference is considered significant if the critical value P obtained was less than 0.05.
For the second series of tests, the non-parametric Kruskal-Wallis test was performed followed by the Dunn test in order to find the differences between the groups. The difference is considered significant if the critical value P obtained was less than 0.05.

Row | SMILES | time period to enter the dark compartment vs. reference groups (rats, scopolamine 1.4 mg/kg 30 minutes before acquisition, etifoxine 0, FIGS. 1, 2) | anti-amnesic action (animals, model where memory disorder is induced by scopolamine (summary statement)) | effect on the amnesic effects of scopolamine (latency to enter the dark compartment, retention) (rats, etifoxine 6.2-50 mg/kg intraperitoneally 35 minutes before acquisition, scopolamine 1.4 mg/kg 30 minutes before acquisition, FIG. 1) | effect on the amnesic effects of scopolamine (latency to enter the dark compartment, retention) (rats, etifoxine 6.2-50 mg/kg intraperitoneally immediately after acquisition, scopolamine 1.4 mg/kg 30 minutes before acquisition, FIG. 2)
1 | CN1[C@@H]2C[C@@H](OC(=O)[C@H](CO)c3ccccc3)C[C@H]1[C@@H]1O[C@@H]12 [Scopolamine] | significantly shorter |  |  | 
2 | CCNC1=Nc2ccc(Cl)cc2C(C)(c2ccccc2)O1.Cl (stereo not shown) [etifoxine, 6-chloro-2-ethylamino-4-methyl-4-phenyl-4H-[3,1]benzoxazine hydrochloride] |  | exhibits anti-amnesic action | counteracts the amnesic effects of scopolamine according to an inverted U-shaped curve | counteracts the amnesic effects of scopolamine according to an inverted U-shaped curve

Reference: patent US20090298817A1, “ANTI-AMNESIC COMPOUNDS AND PHARMACEUTICAL CO[…]” (priority 2008, published 2009)
